Assay results reported in patent US20220380371A1, “MLL1 INHIBITORS AND ANTI-CANCER AGENTS” (NOVARTIS AG, priority 2019, published 2022).
Read-outs that look alike come from different tables or passages of the source.

Legend:
[1] = target: wild type MLL1 four-member complex (MLL1-4C) (Homo sapiens, UniProt Q03164); test: MLL1 LC-MS Assay; assay type: biochemical
Procedure, shortened: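 Compound pre-incubated 20 min with MLL1-4C and SAM, then H3[1-21]-biotin (H3K4me0) substrate added; final 30 nM enzyme, 2.5 μM SAM, 10 μM peptide in Tris pH 8.0 with MgCl2, DTT, Tween 20, BSA. After 120 min at rt, TFA-quenched SAH quantified by LC-MS/MS with d4-SAH; IC50 from dose-response fit.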

[2] = target: wild type MLL1 five-member complex (MLL1-5C) (Homo sapiens, UniProt Q03164); test: MLL1 Flashplate Assay; assay type: biochemical; settings: read-out: MLL1 flash plate
Experimental: MLL1 Flashplate Assay To assess the compound potency in MLL1 Flashplate assay, compounds were serially diluted 3-fold in DMSO to obtain a total of twelve concentrations. Then the test compounds at each concentration (250 nL of each) were transferred by Mosquito into Corning #3675 384-well plate. Solutions (15 μL) of 4.2 nM wild type MLL1 five-member complex (MLL1-5C) in the assay buffer (20 mM Tris-HCl, pH 8.0, 0.01% Tween 20, 1 mM DTT, 0.01% BSA) were added to the wells. A 10 μL solution of 2.5 μM of the peptide substrate H3K4me0 (histone H3[1-21]-Biotin) and 1.25 μM ^3H-SAM in the reaction buffer was then added to initiate each reaction. The final components in the reaction solution include 2.5 nM MLL1-5C, 0.5 μM ^3H-SAM, and 1 μM H3K4me0 with varying concentration of the compounds. A positive control consisted of 2.5 nM MLL1-5C, 0.5 μM ^3H-SAM, and 1 μM substrate in the absence of the test compound, and a negative control consisted of 0.5 μM ^3H-SAM, and 1 μM substrate only. Each reaction was incubated at rt for 90 min, then stopped by addition of 5 μL per of quench solution (0.5 mM SAM in assay buffer). 25 μL of each reaction solution was transferred to FlashPlate streptavidin 384-well microplate (PerkinElmer). After at least 1 h incubation at rt, the wells were washed three times with 0.1% Tween-20 in dH2O using the BioTek plate washer. The plates were then read in MicroBeta (PerkinElmer). The radioactive readouts were then normalized based on the values coming from the positive and negative controls to give percent enzyme activities. The data were then fit to a dose response equation using the program Helios to get the IC50 values of the test compounds.

H3K4me3 in MV4-11 cells = test: MV4-11 H3K4me3 Cellular ELISA Assay; assay type: cell-based; settings: Homo sapiens, MV4-11, 48 h
Procedure, shortened: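 MV4-11 cells were treated for 48 h with 12-point 1:3 compound dilutions (from 10 mM stock), then histones were acid-extracted with 0.5M HCl and neutralized. H3K4me3 and total H3 were measured by HRP chemiluminescent ELISA, and inhibition versus DMSO after H3 normalization was curve-fitted for IC50.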

MV4-11 cells = test: MV4-11 6-Day Cell Growth CTG (CellTiter-Glo) Assay; assay type: cell-based; settings: Homo sapiens, MV4-11, 144 h, MV4-11 cell growth CellTiter-Glo, 6 days
Procedure, shortened: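 MV4-11 AML cells (RPMI 1640, 10% FBS) seeded at 300 cells/well and exposed for 6 days at 37 °C to a 12-point, 1:3 compound series starting at 50 μM final. Viable cells read by CellTiter-Glo luminescence; percent inhibition versus DMSO-only wells fitted to dose-response curves for IC50.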

Row | IC50 ([1]; read-out: LCMS) [nM] | IC50 [2] [nM] | IC50 (H3K4me3 in MV4-11 cells) [nM] | IC50 (MV4-11 cells) [nM] | IC50 ([1]; read-out: MLL1 LCMS) [nM] | SMILES
1 | < 50 | > 100 | < 1900 | < 2000 |  | Nc1ncnc2c1ncn2Cc1c(N2CC[C@](N)(C(=O)NC3CC3)C2)ccc(F)c1CN1CCOCC1 [Example 65]
2 | 50 to 100 | > 100 | < 1900 | < 2000 |  | Nc1ncnc2c1ncn2Cc1c(N2CC[C@](N)(C(=O)NC3CC3)C2)ccc(F)c1CN1CCC1 [Example 70]
3 | 50 to 100 | < 60 | < 1900 | < 2000 |  | Nc1ncnc2c1ncn2Cc1c(-c2cccc(C3CCCCC3)c2)cc(Cl)cc1N1CC[C@](N)(c2nn[nH]n2)C1 [Example 84]
4 | < 50 | < 60 | < 1900 | < 2000 |  | Nc1ncnc2c1ncn2Cc1c(N2CC[C@](N)(c3nc[nH]n3)C2)ccc(Cl)c1Cl [Example 85]
5 | < 50 | < 60 | < 1900 | < 2000 |  | Nc1ncnc2c1ncn2Cc1c(N2CC[C@](N)(C(=O)NC3CC3)C2)ccc(Cl)c1COC(F)F [Example 86]
6 | < 50 | < 60 | < 1900 | < 2000 |  | CN(C)Cc1c(Cl)c(Cl)cc(N2CC[C@](N)(C(=O)NC3CC3)C2)c1Cn1cnc2c(N)ncnc21 [Example 88, (R)-3-amino-1-(2-((6-amino-9H-purin-9-yl)methyl)-4,5-dichloro-3-((dimethylamino)methyl)phenyl)-N-cyclopropylpyrrolidine-3-carboxamide]
7 | < 50 | < 60 | < 1900 | < 2000 |  | CCc1cc(-c2cccs2)cc(N2CC[C@](N)(C(=O)NC3CC3)C2)c1Cn1cnc2c(N)ncnc21 [Example 93]
8 | < 50 | < 60 | 1900 to 3000 | > 3000 |  | CCc1cc(-c2cnn(C)c2)cc(N2CC[C@](N)(C(=O)NC3CC3)C2)c1Cn1cnc2c(N)ncnc21 [Example 96]
9 | < 50 | < 60 | < 1900 | < 2000 |  | CCc1cc(-c2ccccn2)cc(N2CC[C@](N)(C(=O)NC3CC3)C2)c1Cn1cnc2c(N)ncnc21 [Example 99, (R)-3-amino-1-(2-((6-amino-9H-purin-9-yl)methyl)-3-ethyl-5-(pyridin-2-yl)phenyl)-N-cyclopropylpyrrolidine-3-carboxamide]
10 | < 50 | < 60 | < 1900 | < 2000 |  | Nc1ncnc2c1ncn2Cc1c(N2CC[C@](N)(C(=O)NC3CC3)C2)cc(Cl)c(F)c1CN1CCOCC1 [Example 102, (R)-3-amino-1-(2-((6-amino-9H-purin-9-yl)methyl)-5-chloro-4-fluoro-3-(morpholinomethyl)phenyl)-N-cyclopropylpyrrolidine-3-carboxamide]
11 | < 50 | < 60 | < 1900 | < 2000 |  | Nc1ncnc2c1ncn2Cc1c(N2CC[C@@](N)(CO)C2)ccc2ccccc12 [Example 106]
12 | < 50 | < 60 | < 1900 | < 2000 |  | Nc1ncnc2c1ncn2Cc1c(Br)c(Cl)c2c(c1N1CC[C@](N)(C(=O)NC3CC3)C1)OCC2 [Example 110]
13 | 50 to 100 | < 60 | < 1900 | < 2000 |  | Nc1ncnc2c1ncn2Cc1c(N2CC[C@](N)(C(=O)NC3CC3)C2)ccc2ccoc12 [Example 112]
14 | < 50 | < 60 | < 1900 | < 2000 |  | Nc1ncnc2c1ncn2Cc1c(N2CC[C@](N)(C(=O)NC3CC3)C2)ccc(F)c1C(F)(F)F [Example 116, (R)-3-amino-1-(2-((6-amino-9H-purin-9-yl)methyl)-4-fluoro-3-(trifluoromethyl)phenyl)-N-cyclopropylpyrrolidine-3-carboxamide]
15 | < 50 | < 60 | < 1900 | < 2000 |  | CS[C@H]1C[C@H](NC(=O)[C@@]2(N)CCN(c3ccc(F)c(C(F)(F)F)c3Cn3cnc4c(N)ncnc43)C2)C1 [Example 117]
16 | 50 to 100 | < 60 | < 1900 | < 2000 |  | Nc1ncnc2c1ncn2Cc1c(N2CC[C@](N)(C(=O)NCc3cccnn3)C2)ccc(F)c1C(F)(F)F [Example 118]
17 | 50 to 100 | < 60 | < 1900 | < 2000 |  | N#CCC1CCN(C(=O)[C@@]2(N)CCN(c3ccc(F)c(C(F)(F)F)c3Cn3cnc4c(N)ncnc43)C2)CC1 [Example 119]
18 | > 100 | < 60 | < 1900 | < 2000 |  | Nc1ncnc2c1ncn2Cc1c(N2CC[C@](N)(C(=O)Nc3cc(C4CC4)n[nH]3)C2)ccc(F)c1C(F)(F)F [Example 123]
19 | < 50 | < 60 | < 1900 | < 2000 |  | CC(C)(C#N)CNC(=O)[C@@]1(N)CCN(c2ccc(F)c(C(F)(F)F)c2Cn2cnc3c(N)ncnc32)C1 [Example 125]
20 | < 50 | < 60 | < 1900 | < 2000 |  | Nc1ncnc2c1ncn2Cc1c(N2CC[C@](N)(C(=O)N[C@@H]3C[C@H]3CO)C2)ccc(F)c1C(F)(F)F [Example 127]
21 | > 100 | > 100 | < 1900 | > 3000 |  | Nc1ncnc2c1ncn2Cc1c(N2CC[C@](N)(C(=O)N3CCn4nncc4C3)C2)ccc(F)c1C(F)(F)F [Example 128]
22 | 50 to 100 | < 60 | < 1900 | < 2000 |  | C[C@H]1CN(C(=O)[C@@]2(N)CCN(c3ccc(F)c(C(F)(F)F)c3Cn3cnc4c(N)ncnc43)C2)CCO1 [Example 131]
23 | 50 to 100 | < 60 | < 1900 | < 2000 |  | N#CC1CN(C(=O)[C@@]2(N)CCN(c3ccc(F)c(C(F)(F)F)c3Cn3cnc4c(N)ncnc43)C2)C1 [Example 132]
24 | 50 to 100 | 60 to 100 | < 1900 | < 2000 |  | Nc1nccc(CNC(=O)[C@@]2(N)CCN(c3ccc(F)c(C(F)(F)F)c3Cn3cnc4c(N)ncnc43)C2)n1 [Example 133]
25 | > 100 | < 60 | < 1900 | < 2000 |  | Nc1ncnc2c1ncn2Cc1c(N2CC[C@](N)(C(=O)N3CCc4nocc4C3)C2)ccc(F)c1C(F)(F)F [Example 134]
26 | 50 to 100 | < 60 | < 1900 | < 2000 |  | C[C@@H]1CN(C(=O)[C@@]2(N)CCN(c3ccc(F)c(C(F)(F)F)c3Cn3cnc4c(N)ncnc43)C2)CCO1 [Example 135]
27 | 50 to 100 | < 60 | < 1900 | < 2000 |  | N#CCN1CCN(C(=O)[C@@]2(N)CCN(c3ccc(F)c(C(F)(F)F)c3Cn3cnc4c(N)ncnc43)C2)CC1 [Example 136]
28 | 50 to 100 | < 60 | < 1900 | < 2000 |  | Nc1ncnc2c1ncn2Cc1c(N2CC[C@](N)(C(=O)N3CCC[C@@H](O)C3)C2)ccc(F)c1C(F)(F)F [Example 138]
29 | > 100 | 60 to 100 | < 1900 | < 2000 |  | CCn1ncnc1CNC(=O)[C@@]1(N)CCN(c2ccc(F)c(C(F)(F)F)c2Cn2cnc3c(N)ncnc32)C1 [Example 140]
30 |  | < 60 | < 1900 | < 2000 | < 50 | N#CC1CCN(C(=O)[C@@]2(N)CCN(c3ccc(F)c(C(F)(F)F)c3Cn3cnc4c(N)ncnc43)C2)C1 (stereo partly shown) [Example 141]

Row | SMILES | IC50 ([1]; read-out: LCMS) [nM] | IC50 [2] [nM] | IC50 (H3K4me3 in MV4-11 cells) [nM] | IC50 (MV4-11 cells) [nM] | IC50 ([1]; read-out: MLL1 LCMS) [nM]
31 | CCc1c(C#N)c(Cl)cc(N2CC[C@](N)(C(=O)NC3CC3)C2)c1Cn1cnc2c(N)ncnc21 [Example 101, (R)-3-amino-1-(2-((6-amino-9H-purin-9-yl)methyl)-5-chloro-4-cyano-3-ethylphenyl)-N-cyclopropylpyrrolidine-3-carboxamide] | < 50 | < 60 | < 1900 | 2000 to 3000 | 
